“Also recorded” adds a separate entry of the source.
Columns and labels:
MCF-7 cells = assay: MTT cell proliferation assay, FOXC1-overexpressing vs control cells; type: cell-based, human
Description: MCF-7 and T47D human breast cancer cell lines were obtained from the Breast Center at Baylor College of Medicine. Cells were routinely maintained in Dulbecco's modified Eagle's medium (DMEM) supplemented with 10% fetal bovine serum (FBS), 2 mM glutamine, 50 IU/ml of penicillin, 50 μg/ml of streptomycin, and 10 μg/ml insulin. Cells were kept at 37° C. in a humidified incubator with 5% CO2. Tamoxifen and 17β-estradiol were from Sigma (St Louis, Mo.). The IKK small molecule inhibitor BMS-345541 was purchased from Calbiochem (Gibbstown, N.J.). For experiments involving estradiol and tamoxifen, cells were serum-starved overnight and then stimulated with the ER ligands for different time periods prior to cell proliferation assays. Cell viability was assessed by the 3-(4,5-dimethylthiazol-2-yl)-2,5-diphenyltetrazolium (MTT) assay. Cells were seeded in 24-well plates at 30% confluence and the MTT assay was performed one, two, three and four days after treatment. For each assay, 50 μl of MTT (5 mg/ml) were added to each well and cells were incubated at 37° C. for an additional 4 h. After centrifugation, the supernatant was carefully aspirated and 300 μl of DMSO (Sigma) were added to each well. Immediately after resolubilization, all plates were scanned at 575 nm on a microplate reader. The absorbance (A) value represented the number of live cells.

[1] = tested on: ERα, PR, and IRS-1 in FOXC1-overexpressing MCF-7 cells; assay: Immunoblotting of ERα, PR and IRS-1; type: cell-based, human; conditions: 5 μM, 24 h
Description: Whole cell lysates for western blotting were generated by cell lysis buffer (50 mM Tris-HCl, pH 7.4, 150 mM NaCl, 2 mM EDTA, 1% NP-40, 10% glycerol) supplemented with a protease inhibitor cocktail (Sigma, St Louis, Mo.). Equal amounts of protein were separated by 10% SDS-PAGE and then transferred onto a nitrocellulose membrane. The remaining steps were conducted according to a standard immunoblotting protocol (Qu et al., 2009). Immunoblotting was done with polyclonal antibodies against p65, FOXC1, IRS1 (1:200; Santa Cruz Biotechnology), polyclonal antibodies against phospho-p65, p50, IκBα (1:1000; Cell Signal), or monoclonal antibodies against ERα (1:500; Novocastra Laboratories, Newcastle upon Tyne, UK), PR (1:500; DAKO, Carpinteria, Calif.). Anti-β actin (Sigma) was used at a 1:10000 dilution. After the primary antibody incubation, the membrane was again washed with PBST three times (5 min each) and then incubated with a horseradish peroxidase (HRP)-linked secondary antibody (Amersham, Piscataway, N.J.) at a dilution of 1:4000 in blocking solution. The membrane was washed and bands were visualized using chemiluminescence assays.

triple-negative patients = conditions: patients were a mix of basal-like positive and negative; cited from earlier work
[2] = tested on: BT549 basal-like/claudin-low cells; assay: Cell viability (relative survival) with increasing doses of iCRT3; type: cell-based, human; conditions: BT549 (high constitutive FOXC1 expressor) compared to MCF7 (luminal) or SKBR3 (HER2) cell lines
Text: (§1) FIGS. 45A-45B show the relative survival of representative breast cancer cell lines upon inhibition of Wnt/β catenin signaling with increasing doses of the inhibitor iCRT3.

[3] = tested on: HS578T basal-like/claudin-low cells; assay: as above; type: cell-based, human; conditions: HS578T (high constitutive FOXC1 expressor) compared to MCF7 (luminal) or SKBR3 (HER2) cell lines
Text: as §1

FOXC1 expression = FOXC1 expression upon inhibition of Wnt/β catenin signaling; type: cell-based, human; conditions: Wnt inhibition, dose and time dependent, particularly pronounced in BT549 mammosphere cultures
[4] = tested on: BT549 cancer stem cells in mammosphere culture; assay: Mammosphere formation; type: cell-based, human
Text: FIGS. 47A-47B show mammosphere formation upon inhibition of Wnt/β catenin signaling by iCRT-3.
FIGS. 49A-49B show mammosphere formation upon simultaneous inhibition of Wnt/β catenin signaling by addition of iCRT-3 and inhibition of NF-κB signaling.

[5] = tested on: stem related genes and NF-κB signaling in BT549 mammosphere cells; assay: qRT-PCR profiling of residual mammosphere cells after Wnt inhibition; type: cell-based, human
Text: FIG. 48 is a bar graph showing the fold change of mRNA expression of the stem related genes BMI-1, FOXC1, KIT, NANOG, OCT4, and SOX2 upon inhibition of Wnt/β catenin signaling by addition of iCRT-3 on day 4 (left hand bar) and day 7 (right hand bar).

[6] = tested on: FOXC1 expression in MDA-MB-231 basal-like/claudin-low cell line; assay: FOXC1 expression upon exposure to Wnt3a; type: cell-based, human; conditions: MDA-MB-231 (low constitutive FOXC1 expressor) exposed to canonical Wnt ligand
Text: FIGS. 44A-44D show the correlation between FOXC1 expression and Wnt activity upon biological and pharmacologic inhibition and stimulation with a natural ligand.

Molecule: Cc1ccc2nc(NCCN)c3ncc(C)n3c2c1 [BMS-345541]
- sensitivity of cell proliferation to NF-κB inhibition (MCF-7 cells; FOXC1-overexpressing vs vector MCF-7 cells, 5 μM): sensitized
- levels of ERα, PR, and IRS-1 [1]: elevated levels

Molecule: CC(C)C[C@H](NC(=O)[C@H](Cc1ccccc1)NC(=O)c1cnccn1)B(O)O [bortezomib]
- outcome of clinical trial (triple-negative patients): inconclusive results

Molecule: C[C@]12CC[C@@H]3c4ccc(O)cc4CC[C@H]3[C@@H]1CC[C@@H]2O [estradiol, 17β-estradiol]
- increase of cell growth induced by treatment (MCF-7 cells; FOXC1-overexpressing vs control MCF-7 cells, serum-starved, 10^−8 M): diminished the increase of cell growth

Molecule: CCc1ccc(-c2nc(CSCC(=O)NCCc3ccccc3)c(C)o2)cc1 [iCRT3, 2-[[[2-(4-ethylphenyl)-5-methyl-4-oxazolyl]methyl]thio]-N-(2-phenylethyl)acetamide]
- sensitivity to treatment (decreased cell viability) [2]: more sensitive
- sensitivity to treatment (decreased cell viability) [3]: more sensitive
- FOXC1 expression level (FOXC1 expression): decrease in FOXC1 expression level
- FOXC1 expression level (FOXC1 expression; listed as iCRT-3): decreased FOXC1 expression
- mammosphere formation ability of persisting cells ([4]; BT549, Wnt inhibition alone, after an initial 4 day incubation period): renewed enhancement of mammosphere formation ability
- mammosphere formation efficiency ([4]; BT549 cells, Wnt inhibition alone vs DMSO): reduced mammosphere formation efficiency
- FOXC1 positive cells ([5]; cells persisting after Wnt inhibition): depletion of FOXC1 positive cells
- expression of embryonic stem cell transcription factors OCT4, SOX2 and NANOG ([5]; cells persisting after Wnt inhibition (day 4, day 7)): pronounced up regulation
- NF-κB signaling (qRT-PCR based pathway activation analysis) ([5]; residual cells that withstood Wnt inhibition): marked activation of NF-κB signaling

Molecule: CC/C(=C(\c1ccccc1)c1ccc(OCCN(C)C)cc1)c1ccccc1 [tamoxifen]
- sensitivity of cell proliferation to antiestrogen treatment (MCF-7 cells; FOXC1-overexpressing vs control MCF-7 cells, 10^−6 M, regular medium): less sensitive

B1: Wnt3a: a canonical Wnt signaling ligand (protein, UniProt P56704 19-352, looked up)
Protein Wnt-3a: SYPIWWSLAVGPQYSSLGSQPILCASIPGLVPKQLRFCRNYVEIMPSVAEGIKIGIQECQHQFRGRRWNCTTVHDSLAIFGPVLDKATRESAFVHAIASAGVAFAVTRSCAEGTAAICGCSSRHQGSPGKGWKWGGCSEDIEFGGMVSREFADARENRPDARSAMNRHNNEAGRQAIASHMHLKCKCHGLSGSCEVKTCWWSQPDFRAIGDFLKDKYDSASEMVVEKHRESRGWVETLRPRYTYFKVPTERDLVYYEASPNFCEPNPETGSFGTRDRTCNVSSHGIDGCDLLCCGRGHNARAERRREKCRCVFHWCCYVSCQECTRVYDVHTCK
- FOXC1 expression [6]: increased expression of FOXC1; also recorded: increase in FOXC1 expression

Source: US10570458B2, “Methods for diagnosis, prognosis and treatment of primary and metastatic basal-like breast cancer and other cancer types” (ONCONOSTIC TECHNOLOGIES, INC., priority 2009, dated 2020)
